Patent US4937184A, “N-demethylefrotomycin” (Pfizer Inc., priority 1989, dated 1990)
Values after ≈ are worked out from the molar mass of the structure shown.

Columns and labels:
Past. haem. = experiment: In vitro MIC in brain heart infusion (BHI) broth, Past. haem.; format: cell-based
Text: (§1) Generally twelve 2 fold dilutions of the test compound are employed, with initial concentration of the test drug being in the range of 50 to 200 mcg./ml. The susceptibility (MIC) of the test organism is accepted as the lowest concentration of compound capable of producing complete inhibition of growth as judged by the naked eye.

Lact. acidoph. = experiment: In vitro MIC in brain heart infusion (BHI) broth, Lact. acidoph.; format: cell-based; conditions: 24 h, strain 001, replicate Day 1
Text: as §1

Past. haem. 010 = experiment: Mouse protection test, i.p. infection with multilethal amounts of Past. haem. 010; format: in vivo, mice; conditions: subcutaneous, infected i.p. with multilethal amounts of Past. haem. 010
Experimental: Additionally, compound (I) is tested in vivo by the well-known mouse protection test, or by a microbiological (bioassay) determination of serum levels in a variety of mammals (e.g., mouse, rat, dog). For example, at subcutaneous doses of either 100 mg./kg. or 25 mg./kg., there was survival of 5/5 mice infected i.p. with multilethal amounts of Past. haem. 010.

Acto. pyog. = experiment: In vitro MIC in brain heart infusion (BHI) broth, Acto. pyog.; format: cell-based; conditions: 24 h
Text: as §1

Hemoph. pleur. = experiment: In vitro MIC in brain heart infusion (BHI) broth, Hemoph. pleur.; format: cell-based; conditions: 24 h
Text: as §1

E. coli = experiment: In vitro MIC in brain heart infusion (BHI) broth, E. coli; format: cell-based; conditions: Escherichia coli
Text: as §1

Past. mult = experiment: In vitro MIC in brain heart infusion (BHI) broth, Past. mult; format: cell-based; conditions: 48 h
Text: as §1

CC=CC=CC1OC(O)(C(CC)C(=O)NCC=CC=C(C)C(OC)C(C)C2OC(C=CC=CC=C(C)C(=O)c3c(O)cc[nH]c3=O)C(O)C2O)C(O)C(OC2OC(C)C(OC3OC(C)C(OC)C(O)C3OC)C(OC)C2O)C1(C)C (stereo not shown) [N-Demethylefrotomycin, N-demethylefrotomycin]
MIC (Past. haem.; 24 h): 12.5 µg/mL (≈ 11 µM) | MIC (Past. haem.; 48 h): 12.5 µg/mL (≈ 11 µM) | MIC (Past. haem.; strain 046, replicate Day 2, BHI broth): 12.5 µg/mL (≈ 11 µM) | MIC (Lact. acidoph.): 12.5 µg/mL (≈ 11 µM) | survival (Past. haem. 010; 25 mg./kg.): 5/5 | survival (Past. haem. 010; 100 mg./kg.): 5/5 | MIC (Acto. pyog.; strain 002, replicate Day 1): 12.5 µg/mL (≈ 11 µM) | MIC (Acto. pyog.; strain 008, replicate Day 1): 12.5 µg/mL (≈ 11 µM) | MIC (Hemoph. pleur.; strain 004, replicate Day 1): 12.5 µg/mL (≈ 11 µM) | MIC (Hemoph. pleur.; strain 005, replicate Day 1): 12.5 µg/mL (≈ 11 µM) | MIC (E. coli; 24 h, strain 124, replicate Day 1): > 100 µg/mL | MIC (E. coli; 48 h, strain 124, replicate Day 2): > 100 µg/mL | MIC (Past. mult): 12.5 µg/mL (≈ 11 µM)
